The subject of data set [1] is A2780 cells. Kind of data set: Test for induction of differentiation in A2780 cells (ALP activity, ALPmin). In kind it is cell-based, human. Put shortly:
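A2780 cells seeded at 15,000/well, test compound added in serial dilution the next day. ALP reaction stopped with 3N NaOH and absorbance read at 405 nm; ALPmin is the lowest concentration raising ALP activity.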

Data set [2] concerns Murine myeloid leukemia cells WEHI-3. Nature of the data set: Antitumor test, life prolongation in mice inoculated with WEHI-3 cells (T/C). As to conditions: Dose 32 μmol/kg, oral once a day Day 1 to 4 and Day 7 to 11; ratio of survival days to control. It counts as in vivo, Balb/C mouse. An excerpt:
Murine myeloid leukemia cells WEHI-3 (1 to 3×10^6 cells) were intraperitoneally inoculated to a Balb/C mouse, and administration of a test compound was initiated on the next day. The day was Day 1 and subsequently the drug was orally administered once a day in Day 1 to 4 and in Day 7 to 11. Survival days after inoculation were observed, which were used to calculate the ratio of the survival days for the test coompound group to those for the control group (T/C, %). The ratio was used to evaluate a life prolongation effect.

The minimal effective concentration is the lowest level tested that produced the effect sought. A low value points to greater potency. The term melting point denotes the temperature of the solid-liquid transition. For orientation: T/C means the result in the treated group divided by that in the control group, in per cent. For the compound `Nc1ccccc1NC(=O)c1ccc(CNC(=O)COc2cccnc2)cc1` [Example 46, N-(2-aminophenyl)-4-[N-(pyridin-3-yl)oxyacetylaminomethyl]benzamide], the melting point was 154 to 155 °C. Also, the differentiation-inducing activity entry in data set [1] is given as “high”. Further, in data set [1] (Homo sapiens, 72 h, A2780 cells, 3 days incubation, minimum concentration of the drug inducing increase of ALP activity), the minimal effective concentration was found to be 0.1 µM. Also, in data set [2], the T/C worked out at 141%.

Source of the values: patent publication US7317028B2, “Cell differentiation inducer” (Schering Aktiengesellschaft, priority 1996, dated 2008).
